This experiment relates to glioblastoma brain cancer cell line LN-229. The experiment is described as follows: Cytotoxicity assay (CCK8 viability). The format is cell-based. Conditions: Homo sapiens, read-out: EC50 LN-229, 24 hrs, 1% FBS. How it is done: Cytoxocity assay: Cells are seeded on a 96 well polystyrene plate in full serum media at a density of 75,000 cells per milliliter, 100 μL per well. Plates are incubated at 37° C. and 5% CO2 for 24 hours to allow cell attachment. Drug solutions are prepared in DMSO at 100× concentration and mixed 1:100 in 1% FBS media to yield the desired concentration. Drug-media mixtures are vortexed immediately prior to administration to cells. […] 10 μL of Cell Counting Kit 8 (CCK8, Dojindo# CK04-11) is added to each well to colormetrically assess viability. After 2-4 hours of incubation with the CCK8 dye, absorbance is read at 450 nm by a BioTek Synergy 2 plate reader.
The cytotoxicity of selected compounds against the glioblastoma brain cancer cell line LN-229 is depicted in Table 2.

The mark [1] stands for this setting: LN-229 cells, 24 hrs, 1% FBS media, CCK8 readout.

Read-outs that look alike come from different tables or passages of the source.

For 11 molecules, EC50 results are on record in patent publication US8476309B2, “Benzofuran cannabinoid compounds and related methods of use” (The University of Tennessee Research Foundation, priority 2009, dated 2013).

As usually defined, the EC50 is the concentration needed to bring the measured effect to its halfway point.

On to `CCCCCc1cc(O)c2c(-c3cccs3)coc2c1` [Compound 49, 6-Pentyl-3-thiophen-2-yl-benzofuran-4-ol], for which the EC50 under setting [1] is 68.5 µM.

For `CCCCCc1cc(O)c2cc(-c3cccs3)oc2c1` [Compound 50, 6-Pentyl-2-thiophen-2-yl-benzofuran-4-ol], the EC50 under setting [1] came out at 10.1 µM.

For the molecule `CCCCCc1cc(O)c2c(-c3cccc(C)c3)coc2c1` [Compound 51, 6-Pentyl-3-m-tolylbenzofuran-4-ol], under “LN-229, 24 h”, the EC50 came to 16.4 µM.

In the case of `CCCCCc1cc(O)c2c(-c3ccccc3)coc2c1` [Compound 52, 6-Pentyl-3-phenylbenzofuran-4-ol], the EC50 under setting [1] was 10.7 µM.

Turning to `CCCCCc1cc(O)c2c(-c3cc(OC)cc(OC)c3)coc2c1` [Compound 55, 3-(3,5-Dimethoxyphenyl)-6-pentylbenzofuran-4-ol], the EC50 (LN-229, 24 h) is 10.3 µM.

For `CCCCCc1cc(O)c2cc(-c3cc(OC)cc(OC)c3)oc2c1` [Compound 56, 2-(3,5-Dimethoxyphenyl)-6-pentylbenzofuran-4-ol], under setting [1], the EC50 is 10.3 µM.

Consider `CCCCCc1cc(O)c2c(-c3cc(Cl)cc(Cl)c3)coc2c1` [Compound 58, 3-(3,5-Dichlorophenyl)-6-pentylbenzofuran-4-ol], for which, where the note is “LN-229, 24 h”, the EC50 was 13.6 µM.

`CCCCCc1cc(O)c2cc(-c3cc(Cl)cc(Cl)c3)oc2c1` [Compound 59, 2-(3,5-Dichlorophenyl)-6-pentylbenzofuran-4-ol]: the EC50 under setting [1] worked out at 6.12 µM.

With `CCCCCCC(C)(C)c1cc(O)c2c(-c3cc(Cl)cc(Cl)c3)coc2c1` [Compound 62, 3-(3,5-Dichlorophenyl)-6-(2-methyloctan-2-yl)benzofuran-4-ol], the EC50 under setting [1] turned out to be 11.4 µM.

For `CCCCCCC(C)(C)c1cc(O)c2c(-c3ccccc3)coc2c1` [Compound 63, 6-(2-Methyloctan-2-yl)-3-phenylbenzofuran-4-ol], the EC50 under setting [1] is 10.3 µM.

For `CC(C)(c1cccc(F)c1)c1cc(O)c2c(-c3ccccc3)coc2c1` [Compound 75, 6-(2-(3-Fluorophenyl)propan-2-yl)-3-phenylbenzofuran-4-ol], under setting [1], the EC50 turned out to be 6.99 µM.
